Reference: the kinase profiling compilation of Christmann-Franck et al. (2016)

Columns and labels:
Assay in all cases: KINOMEscan competition binding
Settings in all cases: compound 10.0 µM
ACVRL1 (human) = ACVRL1 (human) (UniProt P37023)
AKT3 (human) = AKT3 (human) (UniProt Q9Y243)
CDC42BPA (human) = CDC42BPA (human) (UniProt Q5VT25)
CDK3 (human) = CDK3 (human) (UniProt Q00526)
CHEK2 (human) = CHEK2 (human) (UniProt O96017)
CSNK1E (human) = CSNK1E (human) (UniProt P49674)
CaMK1 (human) = CaMK1 (human) (UniProt Q14012)
DAPK2 (human) = DAPK2 (human) (UniProt Q9UIK4)
DAPK3 (human) = DAPK3 (human) (UniProt O43293)
DYRK1B (human) = DYRK1B (human) (UniProt Q9Y463)
EPHA7 (human) = EPHA7 (human) (UniProt Q15375)
FYN (human) = FYN (human) (UniProt P06241)
GAK (human) = GAK (human) (UniProt O14976)
[1] = biological target: JAK2 JH1 catalytic (human) (UniProt O60674)
LATS2 (human) = LATS2 (human) (UniProt Q9NRM7)
Sequence of LATS2 (human) (Q9NRM7 whole entry, looked up): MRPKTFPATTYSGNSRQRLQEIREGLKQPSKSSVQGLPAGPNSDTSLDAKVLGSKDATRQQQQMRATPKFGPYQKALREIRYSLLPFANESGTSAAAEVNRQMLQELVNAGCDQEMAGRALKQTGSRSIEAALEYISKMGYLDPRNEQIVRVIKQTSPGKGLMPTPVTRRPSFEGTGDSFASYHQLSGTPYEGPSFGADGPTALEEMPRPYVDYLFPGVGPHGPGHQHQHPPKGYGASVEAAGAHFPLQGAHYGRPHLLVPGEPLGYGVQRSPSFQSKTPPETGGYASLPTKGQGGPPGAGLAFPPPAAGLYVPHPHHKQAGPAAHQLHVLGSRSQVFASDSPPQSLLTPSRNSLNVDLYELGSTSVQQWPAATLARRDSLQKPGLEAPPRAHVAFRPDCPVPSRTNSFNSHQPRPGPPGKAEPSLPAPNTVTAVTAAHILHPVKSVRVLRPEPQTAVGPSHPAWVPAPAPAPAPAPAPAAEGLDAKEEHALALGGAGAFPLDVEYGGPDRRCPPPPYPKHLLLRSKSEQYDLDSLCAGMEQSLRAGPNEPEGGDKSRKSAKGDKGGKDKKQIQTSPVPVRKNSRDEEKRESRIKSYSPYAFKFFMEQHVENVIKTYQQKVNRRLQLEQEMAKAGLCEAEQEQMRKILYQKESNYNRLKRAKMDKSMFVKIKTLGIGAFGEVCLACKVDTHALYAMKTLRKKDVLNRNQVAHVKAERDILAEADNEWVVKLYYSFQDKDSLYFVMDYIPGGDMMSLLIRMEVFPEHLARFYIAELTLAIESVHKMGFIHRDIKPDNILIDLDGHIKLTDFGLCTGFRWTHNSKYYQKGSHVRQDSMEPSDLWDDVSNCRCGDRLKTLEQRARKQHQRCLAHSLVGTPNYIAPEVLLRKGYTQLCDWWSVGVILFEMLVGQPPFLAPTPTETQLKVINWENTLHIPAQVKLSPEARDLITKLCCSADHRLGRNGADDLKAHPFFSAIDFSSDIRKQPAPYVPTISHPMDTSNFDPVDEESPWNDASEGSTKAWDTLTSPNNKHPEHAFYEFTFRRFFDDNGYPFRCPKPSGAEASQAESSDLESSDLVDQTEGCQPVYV

MAP3K10 (human) = MAP3K10 (human) (UniProt Q02779)
MAPK3 (human) = MAPK3 (human) (UniProt P27361)
Sequence of MAPK3 (human) (P27361 whole entry, looked up): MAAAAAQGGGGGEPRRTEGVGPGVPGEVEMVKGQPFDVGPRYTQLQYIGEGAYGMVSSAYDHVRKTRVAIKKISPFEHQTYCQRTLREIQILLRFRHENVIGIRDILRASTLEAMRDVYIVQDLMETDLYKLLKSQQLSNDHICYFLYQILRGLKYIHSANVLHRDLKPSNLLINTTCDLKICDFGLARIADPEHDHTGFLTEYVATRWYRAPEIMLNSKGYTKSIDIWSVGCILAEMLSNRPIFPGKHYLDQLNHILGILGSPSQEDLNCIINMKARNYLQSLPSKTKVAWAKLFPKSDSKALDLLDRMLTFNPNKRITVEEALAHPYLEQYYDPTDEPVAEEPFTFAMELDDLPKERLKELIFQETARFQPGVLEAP

MAPKAPK5 (human) = MAPKAPK5 (human) (UniProt Q8IW41)
MARK1 (human) = MARK1 (human) (UniProt Q9P0L2)
MELK (human) = MELK (human) (UniProt Q14680)
Sequence of MELK (human) (Q14680 whole entry, looked up): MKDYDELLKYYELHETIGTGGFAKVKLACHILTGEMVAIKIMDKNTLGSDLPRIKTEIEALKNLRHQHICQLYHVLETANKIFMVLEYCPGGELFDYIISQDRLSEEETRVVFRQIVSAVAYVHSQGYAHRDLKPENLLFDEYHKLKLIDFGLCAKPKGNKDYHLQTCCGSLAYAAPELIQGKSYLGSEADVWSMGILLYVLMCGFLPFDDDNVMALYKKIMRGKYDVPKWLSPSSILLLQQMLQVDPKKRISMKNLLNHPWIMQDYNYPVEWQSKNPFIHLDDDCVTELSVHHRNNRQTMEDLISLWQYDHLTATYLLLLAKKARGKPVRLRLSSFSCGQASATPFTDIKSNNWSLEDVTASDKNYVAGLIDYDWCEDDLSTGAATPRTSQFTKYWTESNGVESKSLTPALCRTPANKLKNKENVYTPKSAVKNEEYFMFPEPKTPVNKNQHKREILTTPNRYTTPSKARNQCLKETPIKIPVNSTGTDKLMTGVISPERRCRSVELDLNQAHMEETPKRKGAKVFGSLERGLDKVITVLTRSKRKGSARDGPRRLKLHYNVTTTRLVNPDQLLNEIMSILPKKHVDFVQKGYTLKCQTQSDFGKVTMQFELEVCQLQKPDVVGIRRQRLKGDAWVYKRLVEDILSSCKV

MKNK1 (human) = MKNK1 (human) (UniProt Q9BUB5)
MYLK (human) = MYLK (human) (UniProt Q15746)
Sequence of MYLK (human) (Q15746 whole entry, looked up): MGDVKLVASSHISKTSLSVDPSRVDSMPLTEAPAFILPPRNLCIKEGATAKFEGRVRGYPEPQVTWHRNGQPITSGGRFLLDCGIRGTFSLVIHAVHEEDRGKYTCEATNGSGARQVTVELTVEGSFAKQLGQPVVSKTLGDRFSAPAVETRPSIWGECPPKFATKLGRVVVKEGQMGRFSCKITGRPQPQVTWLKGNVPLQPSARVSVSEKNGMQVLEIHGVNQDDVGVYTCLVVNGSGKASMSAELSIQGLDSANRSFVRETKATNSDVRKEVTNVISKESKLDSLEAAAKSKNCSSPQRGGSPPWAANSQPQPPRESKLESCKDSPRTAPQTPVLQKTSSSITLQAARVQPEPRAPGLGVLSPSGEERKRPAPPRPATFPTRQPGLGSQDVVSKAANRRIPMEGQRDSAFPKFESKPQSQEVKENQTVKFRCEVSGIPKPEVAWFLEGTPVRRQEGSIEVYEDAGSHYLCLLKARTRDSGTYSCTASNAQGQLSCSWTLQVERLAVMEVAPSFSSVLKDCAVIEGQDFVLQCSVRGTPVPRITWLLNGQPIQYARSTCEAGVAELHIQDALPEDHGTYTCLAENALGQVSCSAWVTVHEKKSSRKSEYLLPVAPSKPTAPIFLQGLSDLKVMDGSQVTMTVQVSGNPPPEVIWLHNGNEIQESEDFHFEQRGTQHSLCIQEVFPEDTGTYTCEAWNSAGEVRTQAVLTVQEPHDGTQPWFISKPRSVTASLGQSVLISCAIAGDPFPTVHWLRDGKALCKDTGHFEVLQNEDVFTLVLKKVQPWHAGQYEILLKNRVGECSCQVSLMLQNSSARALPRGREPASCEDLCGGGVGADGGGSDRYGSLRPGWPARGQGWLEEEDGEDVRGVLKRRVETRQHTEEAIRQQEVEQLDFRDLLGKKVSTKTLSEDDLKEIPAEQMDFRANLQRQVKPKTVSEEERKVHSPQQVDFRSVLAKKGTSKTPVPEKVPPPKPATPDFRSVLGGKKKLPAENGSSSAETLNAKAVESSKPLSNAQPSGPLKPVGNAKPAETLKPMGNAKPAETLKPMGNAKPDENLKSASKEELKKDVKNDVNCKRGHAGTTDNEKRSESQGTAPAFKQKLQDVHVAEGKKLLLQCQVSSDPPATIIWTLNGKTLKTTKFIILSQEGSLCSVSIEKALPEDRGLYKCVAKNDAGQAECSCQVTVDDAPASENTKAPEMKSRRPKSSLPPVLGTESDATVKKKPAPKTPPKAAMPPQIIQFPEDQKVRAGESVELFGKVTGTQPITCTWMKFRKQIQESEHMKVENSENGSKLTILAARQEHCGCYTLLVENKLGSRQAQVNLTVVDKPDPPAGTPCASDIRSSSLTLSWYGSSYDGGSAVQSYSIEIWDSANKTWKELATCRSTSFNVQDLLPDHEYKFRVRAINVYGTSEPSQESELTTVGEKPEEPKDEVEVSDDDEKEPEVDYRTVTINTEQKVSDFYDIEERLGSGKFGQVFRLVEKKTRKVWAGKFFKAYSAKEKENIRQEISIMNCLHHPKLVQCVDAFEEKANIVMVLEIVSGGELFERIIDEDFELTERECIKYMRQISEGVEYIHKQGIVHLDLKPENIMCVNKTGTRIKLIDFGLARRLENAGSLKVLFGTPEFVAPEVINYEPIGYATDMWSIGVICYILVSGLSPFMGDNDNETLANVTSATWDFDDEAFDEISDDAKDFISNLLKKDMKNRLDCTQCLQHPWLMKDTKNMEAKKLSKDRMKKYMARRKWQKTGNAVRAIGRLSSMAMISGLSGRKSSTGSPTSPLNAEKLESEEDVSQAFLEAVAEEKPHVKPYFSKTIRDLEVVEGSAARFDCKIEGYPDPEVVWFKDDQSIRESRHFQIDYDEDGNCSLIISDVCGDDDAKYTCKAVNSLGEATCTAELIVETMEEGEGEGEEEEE

MYO3B (human) = MYO3B (human) (UniProt Q8WXR4)
NUAK1 (human) = NUAK1 (human) (UniProt O60285)
PAK6 (human) = PAK6 (human) (UniProt Q9NQU5)
PHKG1 (human) = PHKG1 (human) (UniProt Q16816)
PIM1 (human) = PIM1 (human) (UniProt P11309)
Sequence of PIM1 (human) (P11309 whole entry, looked up): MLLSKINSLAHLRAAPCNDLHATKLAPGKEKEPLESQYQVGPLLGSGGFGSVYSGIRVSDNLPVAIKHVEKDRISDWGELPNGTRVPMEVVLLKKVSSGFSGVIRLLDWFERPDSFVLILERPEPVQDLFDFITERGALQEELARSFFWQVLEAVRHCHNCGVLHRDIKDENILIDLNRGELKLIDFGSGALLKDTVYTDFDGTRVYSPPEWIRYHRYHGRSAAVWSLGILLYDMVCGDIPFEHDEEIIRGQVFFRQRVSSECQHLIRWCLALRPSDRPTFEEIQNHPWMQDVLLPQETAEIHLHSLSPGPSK

PRKACB (human) = PRKACB (human) (UniProt P22694)
PRKCE (human) = PRKCE (human) (UniProt Q02156)
PRKX (human) = PRKX (human) (UniProt P51817)
RIOK1 (human) = RIOK1 (human) (UniProt Q9BRS2)
SRC (human) = SRC (human) (UniProt P12931)
Sequence of SRC (human) (P12931 whole entry, looked up): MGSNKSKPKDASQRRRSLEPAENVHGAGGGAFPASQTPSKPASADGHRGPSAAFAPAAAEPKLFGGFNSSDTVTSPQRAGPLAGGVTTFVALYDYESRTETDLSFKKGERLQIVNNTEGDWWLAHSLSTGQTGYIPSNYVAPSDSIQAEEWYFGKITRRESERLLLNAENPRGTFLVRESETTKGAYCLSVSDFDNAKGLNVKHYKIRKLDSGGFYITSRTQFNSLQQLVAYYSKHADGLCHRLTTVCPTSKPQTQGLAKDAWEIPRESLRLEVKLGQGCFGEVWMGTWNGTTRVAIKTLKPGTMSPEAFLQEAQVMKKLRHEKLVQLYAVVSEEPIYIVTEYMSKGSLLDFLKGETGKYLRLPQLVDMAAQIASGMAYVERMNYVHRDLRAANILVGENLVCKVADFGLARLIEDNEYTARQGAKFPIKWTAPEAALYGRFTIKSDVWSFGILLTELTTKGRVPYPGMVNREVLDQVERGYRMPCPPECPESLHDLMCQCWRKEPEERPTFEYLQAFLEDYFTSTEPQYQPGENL

SRPK3 (human) = SRPK3 (human) (UniProt Q9UPE1)
STK24 (human) = STK24 (human) (UniProt Q9Y6E0)
STK25 (human) = STK25 (human) (UniProt O00506)
TNK1 (human) = TNK1 (human) (UniProt Q13470)
TNNI3K (human) = TNNI3K (human) (UniProt Q59H18)
[2] = biological target: TYK2 JH1 catalytic (human) (UniProt P29597)
ULK1 (human) = ULK1 (human) (UniProt O75385)
TAOK3 (human) = TAOK3 (human) (UniProt Q9H2K8)

C[C@@H](Oc1cc(-n2cnc3ccc(CN4CCN(C)CC4)cc32)sc1C(N)=O)c1ccccc1C(F)(F)F
kinase still bound, per cent of control (ACVRL1 (human)): 100% | kinase still bound, per cent of control (AKT3 (human)): 100% | kinase still bound, per cent of control (CDC42BPA (human)): 95% | kinase still bound, per cent of control (CDK3 (human)): 100% | kinase still bound, per cent of control (CHEK2 (human)): 69% | kinase still bound, per cent of control (CSNK1E (human)): 100% | kinase still bound, per cent of control (CaMK1 (human)): 90% | kinase still bound, per cent of control (DAPK2 (human)): 15% | kinase still bound, per cent of control (DAPK3 (human)): 15% | kinase still bound, per cent of control (DYRK1B (human)): 89% | kinase still bound, per cent of control (EPHA7 (human)): 83% | kinase still bound, per cent of control (FYN (human)): 100% | kinase still bound, per cent of control (GAK (human)): 100% | kinase still bound, per cent of control [1]: 87% | kinase still bound, per cent of control (LATS2 (human)): 42% | kinase still bound, per cent of control (MAP3K10 (human)): 92% | kinase still bound, per cent of control (MAPK3 (human)): 100% | kinase still bound, per cent of control (MAPKAPK5 (human)): 89% | kinase still bound, per cent of control (MARK1 (human)): 100% | kinase still bound, per cent of control (MELK (human)): 49% | kinase still bound, per cent of control (MKNK1 (human)): 100% | kinase still bound, per cent of control (MYLK (human)): 62% | kinase still bound, per cent of control (MYO3B (human)): 100% | kinase still bound, per cent of control (NUAK1 (human)): 17% | kinase still bound, per cent of control (PAK6 (human)): 98% | kinase still bound, per cent of control (PHKG1 (human)): 94% | kinase still bound, per cent of control (PIM1 (human)): 3% | kinase still bound, per cent of control (PRKACB (human)): 89% | kinase still bound, per cent of control (PRKCE (human)): 3.9% | kinase still bound, per cent of control (PRKX (human)): 100% | kinase still bound, per cent of control (RIOK1 (human)): 4.4% | kinase still bound, per cent of control (SRC (human)): 100% | kinase still bound, per cent of control (SRPK3 (human)): 9.6% | kinase still bound, per cent of control (STK24 (human)): 81% | kinase still bound, per cent of control (STK25 (human)): 83% | kinase still bound, per cent of control (TNK1 (human)): 87% | kinase still bound, per cent of control (TNNI3K (human)): 92% | kinase still bound, per cent of control [2]: 81% | kinase still bound, per cent of control (ULK1 (human)): 41%

CCC(=O)N1CCN(c2ccc(-n3c(=O)ccc4cnc5ccc(-c6cnc7ccccc7c6)cc5c43)cc2C(F)(F)F)CC1
kinase still bound, per cent of control (ACVRL1 (human)): 83% | kinase still bound, per cent of control (AKT3 (human)): 77% | kinase still bound, per cent of control (CDC42BPA (human)): 0.65% | kinase still bound, per cent of control (CDK3 (human)): 100% | kinase still bound, per cent of control (CHEK2 (human)): 100% | kinase still bound, per cent of control (CSNK1E (human)): 59% | kinase still bound, per cent of control (CaMK1 (human)): 50% | kinase still bound, per cent of control (DAPK3 (human)): 82% | kinase still bound, per cent of control (DYRK1B (human)): 87% | kinase still bound, per cent of control (EPHA7 (human)): 98% | kinase still bound, per cent of control (FYN (human)): 49% | kinase still bound, per cent of control (GAK (human)): 57% | kinase still bound, per cent of control [1]: 65% | kinase still bound, per cent of control (LATS2 (human)): 100% | kinase still bound, per cent of control (MAP3K10 (human)): 99% | kinase still bound, per cent of control (MAPK3 (human)): 91% | kinase still bound, per cent of control (MAPKAPK5 (human)): 100% | kinase still bound, per cent of control (MARK1 (human)): 100% | kinase still bound, per cent of control (MELK (human)): 50% | kinase still bound, per cent of control (MKNK1 (human)): 44% | kinase still bound, per cent of control (MYLK (human)): 87% | kinase still bound, per cent of control (MYO3B (human)): 100% | kinase still bound, per cent of control (NUAK1 (human)): 100% | kinase still bound, per cent of control (PAK6 (human)): 77% | kinase still bound, per cent of control (PHKG1 (human)): 100% | kinase still bound, per cent of control (PIM1 (human)): 80% | kinase still bound, per cent of control (PRKACB (human)): 100% | kinase still bound, per cent of control (PRKCE (human)): 86% | kinase still bound, per cent of control (PRKX (human)): 83% | kinase still bound, per cent of control (RIOK1 (human)): 81% | kinase still bound, per cent of control (SRC (human)): 95% | kinase still bound, per cent of control (STK24 (human)): 100% | kinase still bound, per cent of control (STK25 (human)): 84% | kinase still bound, per cent of control (TAOK3 (human)): 76% | kinase still bound, per cent of control (TNK1 (human)): 6.8% | kinase still bound, per cent of control (TNNI3K (human)): 66% | kinase still bound, per cent of control [2]: 70% | kinase still bound, per cent of control (ULK1 (human)): 100%
